This is an account of results in patent US20200032269A1, “GENETICALLY MODIFIED CELL LINES FOR METABOLIC STUDIES” (Hennepin Healthcare Research Institute, priority 2017, published 2020).

Like-named read-outs stand apart in the source and are kept apart here.

For series [1], the system named is HuH-7 CYP3A5 *3/*3 cell line. Nature of the series: Midazolam and tacrolimus metabolism assay, parental HuH-7 cells. As to the method: (§1) To further characterize the cell lines, metabolism assays were performed to determine the effect of each genetic variant on metabolism. FIG. 11 illustrates a generalized representative assay. In this exemplary assay, a cell line is plated on a collagen I-coated plate (or in a well of a multi-well plate, etc.), layered with an extracellular-matrix-like hydrogel (e.g., […], Corning Life Sciences, Tewksbury, Mass.), induced with a suitable inducer (e.g., rifampin and phenytoin), then treated with the substrate MDZ. The MDZ substrate is converted by the metabolic processes of the cell line to 1-OH MDZ or 4-OH MDZ, which can be measured using, for example high performance liquid chromatography (HPLC). The assay can be altered depending on the substrate, cell line, genetic variant, and any other experimental conditions.
(§2) In this metabolism assay, all three exemplary cell lines and HuH-7 parental cell line were grown to confluency and then layered with […] (Corning Life Sciences, Tewksbury, Mass.). The cells were then induced with rifampicin and phenytoin for three days and treated with substrate Tac overnight. Cell culture media were collected after treatment and assayed for Tac disappearance using liquid chromatography-mass spectrometry.
(§3) HuH-7 and engineered cells were grown to confluence in 12 well BIOCOAT collagen I multi-well plates (Corning, Inc., Corning, N.Y.) for 3-4 weeks in DMEM. Cells were then overlaid with […] matrix (Corning, Inc., Corning, N.Y.) and then induced for four days by adding 100 μM phenytoin (USP) and 10 μM rifampicin to the cell culture, with media changed daily with inducers. On the fourth day, 500 μl of media was added to the cells with 100 μM phenytoin (USP) and 10 μM rifampicin with either equal volumes of methanol, as a negative control, or Midazolam (MDZ; Cerrilliant Corp., Round Rock, Tex.) diluted in methanol so that MDZ final concentration was 5 μM in cell culture media. Cells were incubated overnight, and media was collected and assayed for MDZ, 1-OH MDZ and 4-OH MDZ by high performance liquid chromatography.
(§4) To determine the metabolic function of the engineered cell lines, the cells were treated with MDZ at 1628 ng/mL (5 μM) in cell culture overnight. The following day, the cell culture media was harvested and analyzed by liquid chromatography/mass spectrometry (LC/MS) at the University of Minnesota Department of Experimental and Clinical Pharmacology to quantify the concentrations of MDZ and the metabolites 1-hydroxy-midazolam (1-OH MDZ) and 4-hydroxy-midazolam (4-OH MDZ).
(§5) Likewise, Tac was added to cells and analyzed by LC/MS at the University of Minnesota Department of Experimental and Clinical Pharmacology. […]

The target in series [2] is CYP3A4 (Homo sapiens, UniProt P08684). The following applies: FIG. 16 diagram; cited from earlier work.
Series [3] addresses CYP3A5 (Homo sapiens, UniProt P20815). The settings on record: FIG. 16 diagram; cited from earlier work.
Series [4] relates to CYP3A5 *1/*3 sd cell line. Nature of the series: Midazolam and tacrolimus metabolism assay, CYP3A5 *1/*3 sd cells. As to the method: as §1, §2, §3, §4, §5
For series [5], the system named is CYP3A5 *1/*1 dd cell line. Nature of the series: Midazolam and tacrolimus metabolism assay, CYP3A5 *1/*1 dd cells. As to the method:
as §1, §2
HuH-7 and engineered cells were grown to confluence in 12 well BIOCOAT collagen I multi-well plates (Corning, Inc., Corning, N.Y.) for 3-4 weeks in DMEM. […]
as §4, §5

For series [6], the system named is CYP3A5 *1/*3 pm cell line. Nature of the series: Midazolam and tacrolimus metabolism assay, CYP3A5 *1/*3 pm cells. As to the method:
as §1, §2, §3, §4, §5

The conditions of series [7]: kidney transplant patients, cited from earlier work.

Sequence of CYP3A4 (P08684 whole entry): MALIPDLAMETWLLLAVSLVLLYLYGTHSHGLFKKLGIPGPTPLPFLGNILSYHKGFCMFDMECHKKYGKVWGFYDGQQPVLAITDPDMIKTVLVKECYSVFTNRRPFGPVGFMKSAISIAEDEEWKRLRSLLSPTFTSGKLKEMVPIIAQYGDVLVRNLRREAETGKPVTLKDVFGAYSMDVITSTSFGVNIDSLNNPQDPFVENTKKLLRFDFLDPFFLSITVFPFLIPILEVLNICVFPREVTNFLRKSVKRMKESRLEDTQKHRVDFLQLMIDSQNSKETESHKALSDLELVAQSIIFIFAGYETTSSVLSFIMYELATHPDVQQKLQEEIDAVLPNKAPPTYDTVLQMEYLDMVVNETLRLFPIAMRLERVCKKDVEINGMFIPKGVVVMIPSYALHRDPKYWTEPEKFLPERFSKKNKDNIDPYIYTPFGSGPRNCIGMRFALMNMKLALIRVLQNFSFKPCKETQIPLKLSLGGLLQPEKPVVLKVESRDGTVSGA
Sequence of CYP3A5 (P20815 whole entry): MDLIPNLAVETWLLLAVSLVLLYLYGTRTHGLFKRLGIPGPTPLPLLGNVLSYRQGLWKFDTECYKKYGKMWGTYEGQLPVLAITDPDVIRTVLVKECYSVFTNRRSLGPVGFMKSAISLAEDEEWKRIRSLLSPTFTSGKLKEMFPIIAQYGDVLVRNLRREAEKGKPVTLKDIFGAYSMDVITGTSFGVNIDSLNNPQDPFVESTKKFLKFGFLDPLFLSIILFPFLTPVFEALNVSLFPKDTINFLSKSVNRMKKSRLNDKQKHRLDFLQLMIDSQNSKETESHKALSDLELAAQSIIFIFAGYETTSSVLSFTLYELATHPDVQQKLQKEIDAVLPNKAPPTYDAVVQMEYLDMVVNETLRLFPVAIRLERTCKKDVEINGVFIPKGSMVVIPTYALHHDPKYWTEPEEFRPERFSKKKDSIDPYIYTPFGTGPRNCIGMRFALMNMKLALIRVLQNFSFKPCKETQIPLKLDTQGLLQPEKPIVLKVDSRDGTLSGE

As for `Cc1ccc(-c2c(-c3nn(C)c4ncnc(N5CC[C@H](N6CCCCC6)C5)c34)cnn2C)cc1` [CYP3CIDE], in series [1] (50 μM CYP3CIDE, HuH-7 cells, MDZ substrate, FIG. 19), the “inhibition of 1-OH MDZ production” value is given as “nearly completely inhibited”. Further, the “inhibition of 4-OH MDZ production” value in series [1] (50 μM CYP3CIDE, HuH-7 cells, MDZ substrate, FIG. 20) was “inhibited”. Further, the “inhibitory function on CYP3A4” value in series [2] is “strong inhibitor”. For the same compound, in series [3], the “inhibitory function on CYP3A5” value is “mild inhibitory effect”.
As to `Cc1ncc2n1-c1ccc(Cl)cc1C(c1ccccc1F)=NC2` [Midazolam, midazolam], the “Midazolam (ng/mL) No CYP3CIDE” value in series [1] (HuH-7 CYP3A5 *3/*3, start 5 μM (approximately 1629 ng/ml) MDZ, overnight, no CYP3CIDE, mean ± SD of six) was 1458 ± 62 ng/mL; in series [4] (CYP3A5 *1/*3 sd, start 5 μM MDZ, overnight, no CYP3CIDE, mean ± SD of six), 971 ± 110 ng/mL; in series [5] (start 5 μM MDZ, overnight, no CYP3CIDE, mean ± SD of six), 724 ± 200 ng/mL; in series [6] (CYP3A5 *1/*3 pm, start 5 μM MDZ, overnight, no CYP3CIDE, mean ± SD of six), 1130 ± 45 ng/mL. Moreover, the “Midazolam (ng/mL) With CYP3CIDE” value is reported as 1534 ± 32 ng/mL in series [1] (HuH-7 CYP3A5 *3/*3, start 5 μM (approximately 1629 ng/ml) MDZ, overnight, with 50 μM CYP3CIDE, mean ± SD of six); 1241 ± 64 ng/mL in series [4] (CYP3A5 *1/*3 sd, start 5 μM MDZ, overnight, with 50 μM CYP3CIDE, mean ± SD of six); 1189 ± 90 ng/mL in series [5] (start 5 μM MDZ, overnight, with 50 μM CYP3CIDE, mean ± SD of six); 1224 ± 18 ng/mL in series [6] (CYP3A5 *1/*3 pm, start 5 μM MDZ, overnight, with 50 μM CYP3CIDE, mean ± SD of six). Further, the MDZ disappearance entry in series [4] (CYP3A5 *1/*3 sd, FIG. 13, five biological replicates) is recorded as “more efficiently than the parental HuH-7 cell line”; in series [5] (FIG. 13, five biological replicates), “the most MDZ disappearance”; in series [6] (CYP3A5 *1/*3 pm, FIG. 13, five biological replicates), “more efficiently than the parental HuH-7 cell line”.
Take `C=CC[C@@H]1/C=C(\C)C[C@H](C)C[C@H](OC)[C@H]2O[C@@](O)(C(=O)C(=O)N3CCCC[C@H]3C(=O)O[C@H](/C(C)=C/[C@@H]3CC[C@@H](O)[C@H](OC)C3)[C@H](C)[C@@H](O)CC1=O)[C@H](C)C[C@@H]2OC` [Tac, tacrolimus]: the Tac disappearance result in series [4] (human, 13 ng/mL) is “more efficiently than the parental HuH-7 cell line”; in series [6] (human, 13 ng/mL), “more efficiently than the parental HuH-7 cell line”. The entries for the “reduction in log-transformed dose-normalized troughs” value in series [7] (one CYP3A5 *1 allele present) and in series [7] (two CYP3A5 *1 alleles present) were 36% and 59%, respectively.
